# Columns and labels:
# [1] = biological target: T1, Proteasome Macropain subunit MB1 (Homo sapiens, UniProt P28074); assay: Inhibition of chymotrypsin like activity of human 20S proteasome using Suc-Leu-Leu-Val-Tyr-AMC as substrate preincubated for 10 mins followed by substrate addition measured after 1 hr by spectrofluorimetric analysis
# T1 sequence (P28074 whole entry): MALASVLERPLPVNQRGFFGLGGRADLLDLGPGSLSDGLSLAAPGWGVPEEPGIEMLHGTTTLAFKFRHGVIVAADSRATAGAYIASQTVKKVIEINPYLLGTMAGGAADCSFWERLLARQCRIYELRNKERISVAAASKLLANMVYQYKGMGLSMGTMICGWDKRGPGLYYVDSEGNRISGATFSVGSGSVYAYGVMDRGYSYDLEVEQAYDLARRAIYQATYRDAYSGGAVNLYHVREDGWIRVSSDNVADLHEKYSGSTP
# [2] = Cytotoxicity against human U266B1 cells assessed as cell viability after 72 hrs by CellTiter 96 aqueous one solution cell proliferation assay; format: functional, U-266
# [3] = Cytotoxicity against human RPMI8226 cells assessed as cell viability after 72 hrs by CellTiter 96 aqueous one solution cell proliferation assay; format: functional, RPMI-8226
# [4] = Cytotoxicity against human ARH77 cells assessed as cell viability after 72 hrs by CellTiter 96 aqueous one solution cell proliferation assay; format: functional, ARH-77
# [5] = AUClast in Sprague-Dawley rat at 0.2 mg/kg, ig through feeding tube by LC/MS/MS analysis; format: ADME, organism-based; parameters: dose 0.2 mg/kg, route intragastric, time 0 - last; conditions: in vivo, po
# [6] = Cmax in Sprague-Dawley rat at 1 mg/kg, caudal iv by LC/MS/MS analysis; format: ADME, organism-based; parameters: dose 1 mg/kg, route intravenous; conditions: in vivo
# [7] = Cell cycle arrest in human U266 cells assessed as accumulation at G1 phase at 10 nM by propidium iodide/RNase staining based flow cytometric analysis (reference value: 58.21 %); format: functional; conditions: U-266
# [8] = system: Rattus norvegicus; assay: Tmax in Sprague-Dawley rat at 0.2 mg/kg, ig through feeding tube by LC/MS/MS analysis; format: ADME, organism-based; conditions: in vivo, po
# [9] = AUC(0 to infinity) in Sprague-Dawley rat at 1 mg/kg, caudal iv by LC/MS/MS analysis; format: ADME, organism-based; parameters: dose 1 mg/kg, route intravenous, time infinity; conditions: in vivo
# [10] = system: Rattus norvegicus; assay: Cmax in Sprague-Dawley rat at 0.2 mg/kg, ig through feeding tube by LC/MS/MS analysis; format: ADME, organism-based; parameters: dose 0.2 mg/kg, route intragastric; conditions: in vivo, po
# [11] = Elimination half life in Sprague-Dawley rat at 1 mg/kg, caudal iv by LC/MS/MS analysis; format: ADME, organism-based; conditions: in vivo, read-out: beta t1/2 (converted)
# [12] = AUClast in Sprague-Dawley rat at 1 mg/kg, caudal iv by LC/MS/MS analysis; format: ADME, organism-based; parameters: dose 1 mg/kg, route intravenous, time 0 - last; conditions: in vivo
# [13] = MRTlast in Sprague-Dawley rat at 0.2 mg/kg, ig through feeding tube by LC/MS/MS analysis; format: ADME, organism-based; conditions: in vivo, po
# [14] = Cell cycle arrest in human U266 cells assessed as accumulation at G2/M phase at 10 nM by propidium iodide/RNase staining based flow cytometric analysis (reference value: 12.33 %); format: functional; conditions: U-266
# [15] = system: Rattus norvegicus; assay: AUC(0 to infinity) in Sprague-Dawley rat at 0.2 mg/kg, ig through feeding tube by LC/MS/MS analysis; format: ADME, organism-based; parameters: dose 0.2 mg/kg, route intragastric, time infinity; conditions: in vivo, po
# [16] = MRTlast in Sprague-Dawley rat at 1 mg/kg, caudal iv by LC/MS/MS analysis; format: ADME, organism-based; conditions: in vivo
# [17] = Cell cycle arrest in human U266 cells assessed as accumulation at S phase at 10 nM by propidium iodide/RNase staining based flow cytometric analysis (reference value: 29.47 %); format: functional; conditions: U-266
# [18] = system: Rattus norvegicus; assay: Elimination half life in Sprague-Dawley rat at 0.2 mg/kg, ig through feeding tube by LC/MS/MS analysis; format: ADME, organism-based; conditions: in vivo, po
SMILES,IC50 ([1]; read-out: IC50),other results
CC(C)C[C@H](NC(=O)[C@H](Cc1ccccc1)NC(=O)[C@@H]1CCCc2ccccc21)B1OC2C[C@@H]3C[C@@H](C3(C)C)[C@]2(C)O1 (stereo partly specified),5.17 nM,–
Cc1ccc(C[C@H](NC(=O)[C@H](Cc2ccccc2)NC(=O)[C@H]2CCCc3ccccc32)B2OC3C[C@@H]4C[C@@H](C4(C)C)[C@]3(C)O2)cc1 (stereo partly specified),6.7 nM,–
Cc1ccc(C[C@H](NC(=O)[C@H](Cc2c[nH]c3ccccc23)NC(=O)OCc2ccccc2)B2OC3C[C@@H]4C[C@@H](C4(C)C)[C@]3(C)O2)cc1 (stereo partly specified),3.34 nM,–
CC(C)C[C@H](NC(=O)[C@H](Cc1c[nH]c2ccccc12)NC(=O)OCc1ccccc1)B1OC2C[C@@H]3C[C@@H](C3(C)C)[C@]2(C)O1 (stereo partly specified),41.2 nM,–
CC1(C)[C@@H]2CC3OB([C@H](Cc4ccc(F)cc4)NC(=O)[C@H](Cc4ccccc4)NC(=O)[C@H]4CCCc5ccccc54)O[C@@]3(C)[C@H]1C2 (stereo partly specified),1.26 nM,–
Cc1ccc(C[C@H](NC(=O)[C@H](Cc2ccccc2)NC(=O)C2CCc3ccccc3C2)B2OC3C[C@@H]4C[C@@H](C4(C)C)[C@]3(C)O2)cc1 (stereo partly specified),1.16 nM,–
CC(C)C[C@H](NC(=O)[C@H](Cc1ccc2ccccc2c1)NC(=O)C1CCCc2ccccc21)B1OC2C[C@@H]3C[C@@H](C3(C)C)[C@]2(C)O1 (stereo partly specified),7.63 nM,–
CC(C)C[C@H](NC(=O)[C@H](Cc1ccc2ccccc2c1)NC(=O)[C@H]1CCCc2ccccc21)B1OC2C[C@@H]3C[C@@H](C3(C)C)[C@]2(C)O1 (stereo partly specified),6.12 nM,–
CC(C)C[C@H](NC(=O)[C@H](Cc1ccc(C(F)(F)F)cc1)NC(=O)c1cc(Cl)ccc1Cl)B(O)O,8.32 nM,Activity [2]: 100.4%; Activity [3]: 233.7%; Activity [4]: 98.15%
CC(C)C[C@H](NC(=O)[C@H](Cc1cccc2ccccc12)NC(=O)c1cccc2c1CCCC2)B1OC2C[C@@H]3C[C@@H](C3(C)C)[C@]2(C)O1 (stereo partly specified),1.34 nM,–
COc1ccc(C[C@H](NC(=O)c2cc(Cl)ccc2Cl)C(=O)N[C@@H](CC(C)C)B(O)O)c(OC)c1,4.6 nM,AUC(0-t) [5]: 407 ng·h/mL; Cmax [6]: 7.83 ng/mL; Activity [7]: 43.7%; Tmax [8]: 1.8 min; AUC(0-inf) [9]: 83 ng·h/mL; Activity [2]: 18.66%; Cmax [10]: 245 ng/mL; half-life [11]: 7.24 h; AUC(0-t) [12]: 47.9 ng·h/mL; MRT last [13]: 6.9 h; Activity [14]: 21.5%; AUC [15]: 408 ng·h/mL; MRT last [16]: 8.44 h; Activity [3]: 37.78%; Activity [17]: 34.8%; Activity [4]: 14.58%; beta t1/2 [18]: 0.2 h
CC(C)C[C@H](NC(=O)[C@H](Cc1ccc2ccccc2c1)NC(=O)c1cccc2c1CCCC2)B1OC2C[C@@H]3C[C@@H](C3(C)C)[C@]2(C)O1 (stereo partly specified),1.16 nM,–
CC(C)C[C@H](NC(=O)[C@H](Cc1ccccc1)NC(=O)[C@H]1CCCc2ccccc21)B1OC2C[C@@H]3C[C@@H](C3(C)C)[C@]2(C)O1 (stereo partly specified),1.12 nM,–
CC(C)C[C@H](NC(=O)[C@H](CC(C)C)NC(=O)C1CCCc2ccccc21)B1OC2C[C@@H]3C[C@@H](C3(C)C)[C@]2(C)O1 (stereo partly specified),14.2 nM,–
CC(C)C[C@H](NC(=O)[C@H](Cc1ccccc1)NC(=O)c1cccc2c1CCCC2)B1OC2C[C@@H]3C[C@@H](C3(C)C)[C@]2(C)O1 (stereo partly specified),0.76 nM,IC50 ([1]; read-out: pIC50 (converted)): 1.32 nM
CC(C)C[C@H](NC(=O)[C@H](Cc1ccc(O)cc1)NC(=O)OC(C)(C)C)B1OC2C[C@@H]3C[C@@H](C3(C)C)[C@]2(C)O1 (stereo partly specified),16.4 nM,–
CC(C)C[C@H](NC(=O)[C@H](Cc1ccccc1)NC(=O)c1cnccn1)B(O)O [BORTEZOMIB],–,Activity [2]: 11.63%; Activity [3]: 11.2%; Activity [4]: 9.57%
CC(C)C[C@H](NC(=O)[C@H](Cc1ccccc1)NC(=O)C1CCCc2ccccc21)B1OC2C[C@@H]3C[C@@H](C3(C)C)[C@]2(C)O1 (stereo partly specified),4.18 nM,–
CC(C)C[C@H](NC(=O)[C@@H](NC(=O)c1cccc2c1CCCC2)C(C)C)B1OC2C[C@@H]3C[C@@H](C3(C)C)[C@]2(C)O1 (stereo partly specified),6.96 nM,–
CC(C)C[C@H](NC(=O)[C@H](Cc1ccc(C(F)(F)F)cc1)NC(=O)c1cnccn1)B(O)O,42.6 nM,–
CC(C)C[C@H](NC(=O)[C@H](Cc1ccccc1)NC(=O)C1CCc2ccccc2C1)B1OC2C[C@@H]3C[C@@H](C3(C)C)[C@]2(C)O1 (stereo partly specified),1.46 nM,–
O=C(N[C@@H](Cc1ccccc1)C(=O)N[C@@H](Cc1ccc(F)cc1)B(O)O)c1cnccn1,4.37 nM,–

SMILES,IC50 ([1]; read-out: IC50),other results
CC1(C)[C@@H]2CC3OB([C@H](Cc4ccccc4)NC(=O)[C@H](Cc4ccccc4)NC(=O)C4CCc5ccccc5C4)O[C@@]3(C)[C@H]1C2 (stereo partly specified),3.37 nM,–
CC(C)C[C@H](NC(=O)[C@H](Cc1c[nH]c2ccccc12)NC(=O)C1CCCc2ccccc21)B1OC2C[C@@H]3C[C@@H](C3(C)C)[C@]2(C)O1 (stereo partly specified),3.67 nM,–
CC(C)C[C@H](NC(=O)[C@@H](NC(=O)C1CCCc2ccccc21)C(C)C)B1OC2C[C@@H]3C[C@@H](C3(C)C)[C@]2(C)O1 (stereo partly specified),39 nM,–
Cc1ccc(C[C@H](NC(=O)[C@H](CC(C)C)NC(=O)OC(C)(C)C)B2OC3C[C@@H]4C[C@@H](C4(C)C)[C@]3(C)O2)cc1 (stereo partly specified),471 nM,–
CC(C)C[C@H](NC(=O)[C@H](CC(C)C)NC(=O)c1cccc2c1CCCC2)B1OC2C[C@@H]3C[C@@H](C3(C)C)[C@]2(C)O1 (stereo partly specified),1.15 nM,–
CC(C)(C)OC(=O)N[C@@H](Cc1ccc(O)cc1)C(=O)N[C@@H](Cc1ccccc1)B1OC2C[C@@H]3C[C@@H](C3(C)C)[C@]2(C)O1 (stereo partly specified),114 nM,–
CCCC[C@H](NC(=O)[C@H](Cc1ccccc1)NC(C)=O)B1OC2C[C@@H]3C[C@@H](C3(C)C)[C@]2(C)O1 (stereo partly specified),8.46 nM,–
CC(C)C[C@H](NC(=O)[C@H](Cc1ccccc1)NC(=O)c1cnccn1)B1OC2C[C@@H]3C[C@@H](C3(C)C)[C@]2(C)O1 (stereo partly specified),1.92 nM,–
Cc1ccc(C[C@H](NC(=O)[C@H](Cc2ccccc2)NC(=O)c2cnccn2)B2OC3C[C@@H]4C[C@@H](C4(C)C)[C@]3(C)O2)cc1 (stereo partly specified),4.85 nM,–
CCCC[C@H](NC(=O)[C@H](Cc1ccccc1)NC(=O)[C@H]1CCCc2ccccc21)B1OC2C[C@@H]3C[C@@H](C3(C)C)[C@]2(C)O1 (stereo partly specified),1.92 nM,–
CC(C)C[C@H](NC(=O)[C@H](Cc1cccc2ccccc12)NC(=O)c1ccc2ccccc2c1)B1OC2C[C@@H]3C[C@@H](C3(C)C)[C@]2(C)O1 (stereo partly specified),2.46 nM,–
Cc1cnc(C(=O)N[C@@H](Cc2ccccc2)C(=O)N[C@@H](CC(C)C)B(O)O)cn1,26.2 nM,–
CC(C)C[C@H](NC(=O)[C@H](Cc1cccc2ccccc12)NC(=O)C1CCCc2ccccc21)B1OC2C[C@@H]3C[C@@H](C3(C)C)[C@]2(C)O1 (stereo partly specified),4.26 nM,–
CC1(C)[C@@H]2CC3OB([C@H](Cc4ccccc4)NC(=O)[C@H](Cc4ccccc4)NC(=O)[C@H]4CCCc5ccccc54)O[C@@]3(C)[C@H]1C2 (stereo partly specified),5.24 nM,–
CC(=O)N[C@@H](Cc1ccccc1)C(=O)N[C@@H](CC(C)C)B1OC2C[C@@H]3C[C@@H](C3(C)C)[C@]2(C)O1 (stereo partly specified),2.34 nM,–
CCCC[C@H](NC(=O)[C@H](CC(C)C)NC(=O)OC(C)(C)C)B1OC2C[C@@H]3C[C@@H](C3(C)C)[C@]2(C)O1 (stereo partly specified),49.5 nM,–
CC(C)C[C@H](NC(=O)OC(C)(C)C)C(=O)N[C@@H](Cc1ccccc1)B1OC2C[C@@H]3C[C@@H](C3(C)C)[C@]2(C)O1 (stereo partly specified),120 nM,–
CC(C)C[C@H](NC(=O)[C@H](Cc1cc(C(F)(F)F)cc(C(F)(F)F)c1)NC(=O)c1cc(Cl)ccc1Cl)B(O)O,25 nM,–
CC1(C)[C@@H]2CC3OB([C@H](Cc4ccc(F)cc4)NC(=O)[C@H](Cc4ccccc4)NC(=O)c4cnccn4)O[C@@]3(C)[C@H]1C2 (stereo partly specified),3.21 nM,–
CC(=O)N[C@@H](Cc1ccccc1)C(=O)N[C@@H](Cc1ccc(C)cc1)B1OC2C[C@@H]3C[C@@H](C3(C)C)[C@]2(C)O1 (stereo partly specified),2.73 nM,–
CCC(C)[C@H](NC(=O)C1CCCc2ccccc21)C(=O)N[C@@H](CC(C)C)B1OC2C[C@@H]3C[C@@H](C3(C)C)[C@]2(C)O1 (stereo partly specified),17.2 nM,–

# From ChEMBL document CHEMBL3792352, “3D-QSAR-aided design, synthesis, in vitro and in vivo evaluation of dipeptidyl boronic acid proteasome inhibitors and mechanism studies” (Bioorg Med Chem, 2016)
